Test system: HCV replicon
Assay: microbe, parasite or virus in culture
Assay type: cell-based
Details: Hepatitis C virus, 48 h, read-out: Replicon IC5Os

SMILES | IC50 [nM]
CCOC(=O)Nc1cccc(-c2c(C#N)c3ccc(OCCCn4ccnc4)cc3n2CC)c1 [Compound 525] | 500 to 2000
CCOC(=O)Nc1cccc(-c2c(C#N)c3ccc(OCCCN4CCN(C)CC4)cc3n2CC)c1 [Compound 526] | < 500
CCOC(=O)Nc1cccc(-c2c(C#N)c3ccc(OCCCN(C)CCOC)cc3n2CC)c1 [Compound 531] | 500 to 2000
CCOC(=O)Nc1ccc(-c2c(C#N)c3ccc(OCCCn4ccnc4)cc3n2CC)cc1 [Compound 532] | 500 to 2000
CCOC(=O)Nc1ccc(-c2c(C#N)c3ccc(OCCCN4CCN(C)CC4)cc3n2CC)cc1 [Compound 533] | 500 to 2000
CCOC(=O)Nc1ccc(-c2c(C#N)c3ccc(OCCCN4CCSCC4)cc3n2CC)cc1 [Compound 534] | < 500
CCOC(=O)Nc1ccc(-c2c(C#N)c3ccc(OCCCN4CCCCC4)cc3n2CC)cc1 [Compound 535] | < 500
CCOC(=O)Nc1ccc(-c2c(C#N)c3ccc(OCCCn4ccnn4)cc3n2CC)cc1 [Compound 536] | 500 to 2000
CCOC(=O)Nc1ccc(-c2c(C#N)c3ccc(OCCCN4CCCC4)cc3n2CC)cc1 [Compound 537] | < 500
CCOC(=O)Nc1ccc(-c2c(C#N)c3ccc(OCCCn4cncn4)cc3n2CC)cc1 [Compound 538] | 500 to 2000
CCOC(=O)Nc1ccc(-c2c(C#N)c3ccc(OCCCN4CCOCC4)cc3n2CC)cc1 [Compound 539] | < 500
C=CS(=O)(=O)Nc1cccc(-c2c(C#N)c3ccc(C(F)(F)F)cc3n2CC)c1 [Compound 562] | < 500
CCn1c(-c2cccc(NC(=O)OC)c2)c(C#N)c2ccc(OC(C)C)cc21 [Compound 581] | 500 to 2000
CCOC(=O)Nc1cccc(-c2c(C#N)c3ccc(OC(C)C)cc3n2CC)c1 [Compound 582] | 500 to 2000
CCCOC(=O)Nc1cccc(-c2c(C#N)c3ccc(OC(C)C)cc3n2CC)c1 [Compound 585] | 500 to 2000

Same assay, conditions: Replicon IC50 values are determined by firefly luciferase signal; bicistronic replicon, 2 days; read-out: Replicon IC5Os

SMILES | IC50 [nM]
CCCOC(=O)Nc1cccc(-c2c(C#N)c3cc(OC)ccc3n2CC)c1 [Compound 508] | > 2000
CCn1c(-c2cccc(NC(=O)OCCCCl)c2)c(C#N)c2cc(OC)ccc21 [Compound 509] | > 2000
CCCNC(=O)Nc1cccc(-c2c(C#N)c3cc(OC)ccc3n2CC)c1 [Compound 511] | > 2000
CCOC(=O)NC(=O)Nc1cccc(-c2c(C#N)c3cc(OC)ccc3n2CC)c1 [Compound 512] | > 2000
CCn1c(-c2cccc(NC(=O)Nc3cccc(C(F)(F)F)c3)c2)c(C#N)c2cc(OC)ccc21 [Compound 513] | > 2000
CCn1c(NC)c(C#N)c2ccc(C(F)(F)F)cc21 [Compound 514] | > 2000
CCS(=O)(=O)Nc1ccc(-c2cc3ccc(OC(F)F)cc3n2C)cc1 [Compound 515] | 500 to 2000
CCS(=O)(=O)Nc1ccc(-c2cc3ccc(OC(F)F)cc3n2C(C)C)cc1 [Compound 517] | > 2000
CCCn1c(-c2ccc(NS(=O)(=O)CC)cc2)c(C#N)c2ccc(OC(F)F)cc21 [Compound 522] | < 500
CCS(=O)(=O)Nc1ccc(-c2c(C#N)c3ccc(OC(F)F)cc3n2C(C)C)cc1 [Compound 524] | < 500
CCOC(=O)Nc1cccc(-c2c(C#N)c3ccc(OCCCN4CCSCC4)cc3n2CC)c1 [Compound 527] | 500 to 2000
CCOC(=O)Nc1cccc(-c2c(C#N)c3ccc(OCCCN4CCCCC4)cc3n2CC)c1 [Compound 528] | 500 to 2000
CCOC(=O)Nc1cccc(-c2c(C#N)c3ccc(OCCCn4ccnn4)cc3n2CC)c1 [Compound 529] | 500 to 2000
CCn1c(-c2cccc(NS(=O)(=O)NC)c2)c(C#N)c2ccc(OC)cc21 [Compound 540] | 500 to 2000
CCNS(=O)(=O)Nc1cccc(-c2c(C#N)c3ccc(OC)cc3n2CC)c1 [Compound 541] | > 2000
CCCOC(=O)Nc1ccc(-c2c(C#N)c3ccc(OCCF)cc3n2CC)cc1 [Compound 547] | < 500
COc1ccc2c(C#N)c(-c3cccc(NC(=O)OCCCl)c3)n(C(C)C)c2c1 [Compound 553] | > 2000
C#CCOC(=O)Nc1cccc(-c2c(C#N)c3ccc(OC)cc3n2C(C)C)c1 [Compound 554] | > 2000
COCCOC(=O)Nc1cccc(-c2c(C#N)c3ccc(OC)cc3n2C(C)C)c1 [Compound 555] | > 2000
COc1ccc2c(C#N)c(-c3cccc(NC(=O)OCc4ccccc4)c3)n(C(C)C)c2c1 [Compound 556] | > 2000
COc1ccc(OC(=O)Nc2cccc(-c3c(C#N)c4ccc(OC)cc4n3C(C)C)c2)cc1 [Compound 557] | 500 to 2000
CCn1c(-c2cccc(NC(=O)CCl)c2)c(C#N)c2ccc(C(F)(F)F)cc21 [Compound 558] | 500 to 2000
CCC(=O)Nc1cccc(-c2c(C#N)c3ccc(C(F)(F)F)cc3n2CC)c1 [Compound 559] | > 2000

SMILES | IC50 [nM]
CCn1c(-c2cccc(NC(=O)c3ccccc3)c2)c(C#N)c2ccc(C(F)(F)F)cc21 [Compound 560] | > 2000
CCn1c(-c2cccc(NC(=O)C3CC3)c2)c(C#N)c2ccc(C(F)(F)F)cc21 [Compound 561] | > 2000
CCn1c(-c2ccc(C(=O)NCCNC)cc2)c(C#N)c2ccc(OC)cc21 [Compound 564] | 500 to 2000
CCn1c(-c2ccc(NC(C)=O)cc2)c(C#N)c2ccccc21 [Compound 565] | > 2000
CCn1c(-c2ccc(NC(=O)COC)cc2)c(C#N)c2ccccc21 [Compound 566] | > 2000
CCn1c(-c2ccc(C(N)=O)cc2)c(C#N)c2cc(OC)ccc21 [Compound 568] | > 2000
CCNC(=O)c1ccc(-c2c(C#N)c3cc(OC)ccc3n2CC)cc1 [Compound 569] | 500 to 2000
CCn1c(-c2ccc(C(=O)NC3CC3)cc2)c(C#N)c2cc(OC)ccc21 [Compound 571] | 500 to 2000
CCn1c(-c2ccc(C(=O)NCCOC)cc2)c(C#N)c2cc(OC)ccc21 [Compound 572] | 500 to 2000
CCn1c(-c2ccc(C(=O)N3CCCN(C)CC3)cc2)c(C#N)c2cc(OC)ccc21 [Compound 573] | > 2000
CCN(CC)S(=O)(=O)Nc1cccc(-c2c(C#N)c3ccc(OC)cc3n2CC)c1 [Compound 574] | > 2000
CCS(=O)(=O)Nc1ccc(-c2cc3cc(OC)ccc3n2C)cc1 [Compound 575] | 500 to 2000
CCn1c(-c2cccc(NS(=O)(=O)N3CCCC3)c2)c(C#N)c2ccc(OC)cc21 [Compound 576] | > 2000
CCS(=O)(=O)Nc1ccc(-c2cc3c(OC)cccc3n2C)cc1 [Compound 577] | 500 to 2000
CCn1c(-c2ccc3occc3c2)c(C#N)c2ccc(OC)cc21 [Compound 578] | 500 to 2000
CCn1c(-c2cccc(NC(=O)OCCF)c2)c(C#N)c2ccc(OC(C)C)cc21 [Compound 583] | 500 to 2000
CCn1c(-c2cccc(NC(=O)OCCCl)c2)c(C#N)c2ccc(OC(C)C)cc21 [Compound 584] | > 2000
CCn1c(-c2cccc(NC(=O)OCCCCl)c2)c(C#N)c2ccc(OC(C)C)cc21 [Compound 586] | 500 to 2000
CCn1c(-c2cccc(NC(=O)OC(C)C)c2)c(C#N)c2ccc(OC(C)C)cc21 [Compound 587] | 500 to 2000
C#CCOC(=O)Nc1cccc(-c2c(C#N)c3ccc(OC(C)C)cc3n2CC)c1 [Compound 588] | > 2000
CCn1c(-c2cccc(NC(=O)OCCOC)c2)c(C#N)c2ccc(OC(C)C)cc21 [Compound 589] | 500 to 2000
CCn1c(-c2cccc(NC(=O)OCC(C)C)c2)c(C#N)c2ccc(OC(C)C)cc21 [Compound 591] | > 2000
